{"source": "patent US5229265A", "about": "“Process for analyzing clastogenic agents” (Litron Laboratories, priority 1990, dated 1993)", "format_in_all_cases": "in vivo, mouse", "key": {"[1]": {"tested_on": "micronucleated cells in blood", "assay": "Flow cytometric micronucleus assay, list mode data, blood of MMS treated mice, per 10,000 PCEs", "description": "(§1) The fixation procedure can affect the permeability of a cell, cell morphology and the amount of undesirable autofluorescence that is associated with a cell preparation. Fixing procedures can cause changes in cell structure (that are reflected in the light scatter patterns) as well as changes in the distribution of the dye molecules within the cells (resulting in altered fluorescence emission patterns). Practioners of the art are unaware that fixing the cells at ultralow temperatures circumvents these fixation problems and provides cells that are suitable for subsequent staining and FCM analysis. Initially, the cells are centrifuged in order to separate them from serum components which could aggregate when added to cold fixative. To fix cells, a fresh blood sample (25 μl) containing an anticogulant is suspended in a solution containing 1% BSA and 10% dimethylsulfoxide (DMSO) in PBS (2 ml). The cells are centrifuged at 500×g for five minutes at room temperature. The supernatant is discarded and the pellet is resuspended in the small amount of residual supernatant that remains. This cell suspension is cooled to 0° C., the cells are diluted further with cold (-70° C.) absolute methanol (2 ml) and it is incubated at -70° C. for five minutes. The cell suspension is then immediately diluted with 1% BSA in PBS (10 ml) and is centrifuged at 500×g for 5 minutes. The low temperature treatment yields fixed cells with good morphology as viewed with either inverted phase contrast microscopy or fluorescent microscopy. […] Cells fixed in this way can be stored at 0° C. for weeks with no significant deterioration and are ready for staining and MN analysis.\n(§2) It is known to practioners in the art that a variety of fluorescent dyes can be used to stain the DNA and RNA of cells. […] By choosing proper concentrations of these two dyes in conjunction with 363 nm excitation wavelength, it is possible to obtain a blue fluorescence signal from the Hoechst 33258 labeled micronucleii. A red fluorescence signal can be obtained from propidium iodide labeled PCEs. […]"}, "[2]": {"tested_on": "micronucleated cells in blood", "assay": "Flow cytometric micronucleus assay, dual parameter data, MMS, Hoechst 33258 stain, per 500,000 cells", "description": "as §1, §2"}, "[3]": {"tested_on": "micronucleated cells in blood", "assay": "Flow cytometric micronucleus assay, dual parameter data, MMS, Hoechst 33258 & propidium iodide, per 500,000 cells", "conditions": "MMS 100 μg/g body weight IP at 0 and 48 hours", "description": "The fixation procedure can affect the permeability of a cell, cell morphology and the amount of undesirable autofluorescence that is associated with a cell preparation. Fixing procedures can cause changes in cell structure (that are reflected in the light scatter patterns) as well as changes in the distribution of the dye molecules within the cells (resulting in altered fluorescence emission patterns). Practioners of the art are unaware that fixing the cells at ultralow temperatures circumvents these fixation problems and provides cells that are suitable for subsequent staining and FCM analysis. […] Cells fixed in this way can be stored at 0° C. for weeks with no significant deterioration and are ready for staining and MN analysis.\nWhen two dyes are used for simultaneous micronucleus and PCE discrimination, the cell suspension is prepared as follows: The Hoechst 33258 working solution described above is prepared and is filtered through an 0.2 micron Acro-disk (Gilman Sciences). […] When blood from a malaria (P. berghei) infected mouse was fixed and stained by this procedure, the bivariate pattern shown in FIG. 1B resulted, in which a stronger red fluorescence signal was obtained. […] The pH of the stained solution is important for good fluorescence emission profiles and resolution of the different cell populations. […]"}, "[4]": {"conditions": "MMS 100 μg/g body weight IP at 0 and 48 hours, Hoechst 33258"}}, "note": "Values joined by “and” are separate entries in the source; they are usually repeats but may differ in a detail not shown here. Equal entries are not always repeated. “Also recorded” adds a separate entry of the source.", "data": [{"smiles": "COS(C)(=O)=O", "note": "[MMS, methyl methanesulfonate]", "values": [{"measurement": "Experimental (A96) (MN96 hr)", "setting": "[1]; MMS 100 μg/g body weight IP at 0 and 48 hours, 96 hr blood, list mode", "result": "432 MNs/10,000 PCEs and 546 MNs/10,000 PCEs and 470 MNs/10,000 PCEs and 523 MNs/10,000 PCEs and 580 MNs/10,000 PCEs"}, {"measurement": "Δ (A96 - T96), change in number of MNs", "setting": "[1]; MMS 100 μg/g body weight IP at 0 and 48 hours, normalized with K, list mode", "result": "293 MNs/10,000 PCEs and 342 MNs/10,000 PCEs and 328 MNs/10,000 PCEs and 307 MNs/10,000 PCEs and 374 MNs/10,000 PCEs and 329 ± 32 MNs/10,000 PCEs and 329±28 MNs/10,000 PCEs"}, {"measurement": "clastogenic activity", "setting": "[1]; MMS 100 μg/g body weight IP at t=0 and t=48 hours", "result": "MMS exhibited clastogenic activity"}, {"measurement": "Mns (96 hr)", "setting": "[2]; [4]", "result": "1654 MNs per 500,000 cells and 1424 MNs per 500,000 cells and 1360 MNs per 500,000 cells and 1662 MNs per 500,000 cells"}, {"measurement": "Δ (T96 - T0), change in MNs", "setting": "[2]; [4]", "result": "713 MNs per 500,000 cells and 620 MNs per 500,000 cells and 512 MNs per 500,000 cells and 540 MNs per 500,000 cells and 596 ± 90 MNs per 500,000 cells"}, {"measurement": "change (Δ) in MNs versus control mice", "setting": "[2]; MMS 100 μg/g body weight at 0 and 48 hours, 96 hr blood", "result": "significantly higher than the Δ values for the control mice; also recorded: increase in the number of MNs in the analysis area relative to the initial blood"}, {"measurement": "Mns (96 hr)", "setting": "[3]", "result": "1416 MNs per 500,000 cells and 1394 MNs per 500,000 cells and 1282 MNs per 500,000 cells and 1535 MNs per 500,000 cells"}, {"measurement": "ΔMns (T96 - T0)", "setting": "[3]", "result": "535 MNs per 500,000 cells and 563 MNs per 500,000 cells and 657 MNs per 500,000 cells and 399 MNs per 500,000 cells and 520 MNs per 500,000 cells and 535 ± 107 MNs per 500,000 cells"}]}]}
